Measured values as given in US20040266723A1, “Antiviral agents for treatment of Flaviviridae infections” (priority 2000, published 2004).
pIC50, pKi: −log10 of the molar value. Where two headings read alike, the source gives them in different places.

How the values were obtained:
BVDV = BVDV real time RT-PCR antiviral assay in MDBK cells; format: cell-based, Bovine viral diarrhea virus (BVDV), strain NADL; conditions: for Selectivity Index (24 hrs/24 hrs) CC50/EC90: MDBK CC50 24 hrs / antiviral EC90 24 hrs; for virus production / viral RNA versus negative control / max log reduction Viral Load: MDBK cells; for virus production / viral RNA versus negative control: MOI 0.02, 22 hours, real time RT-PCR
Description: As one illustration of this method, in the case of BVDV in MDBK cells, in a first step, viral RNA is isolated from 140 μL of the cell culture supernatant by means of a commercially available column (Viral RNA extraction kit, QiaGen, CA). The viral RNA is then eluted from the column to yield a total volume of 60 μL, and subsequently amplified with a quantitative RT-PCR protocol using a suitable primer for the BVDV NADL strain. A quenched fluorescent probe molecule is hybridized to the BVDV DNA, which then undergoes exonucleolytic degradation resulting in a detectable fluorescent signal. Therefore, the RT-PCR amplified DNA was detected in real time by monitoring the presence of fluorescence signals. The TaqMan probe molecule (5′ 6-fam-[…]-tamara 3′ [Sequence ID No. 7] and primers (sense: 5′-[…]-3′ [Sequence ID No. 8]; and antisense: 5′-[…]-3′ [Sequence ID No. 9]) were designed with the aid of the Primer Express software (PE-Applied Biosystems) to be complementary to the BVDV NADL NS5B region. A total of 10 μL of RNA was analyzed in a 50 μL RT-PCR mixture. Reagents and conditions used in quantitative PCR were purchased from PE-Applied Biosystems. The standard curve that was created using the undiluted inoculum virus ranged from 6000 plaque forming units (PFU) to 0.6 PFU per RT-PCR mixture.
Maldin-Darby bovine kidney (MDBK) cells were grown and maintained in a modified eagle medium (DMEM/F12; GibcoBRL), supplemented with 10% heat inactivated horse serum at 37° C. in a humidified, 5% CO2, incubator.
Bovine viral diarrhea virus (BVDV), strain NADL, causes a cytopathogenic effect (CPE) after infection of these cells.
Cells that were not treated with a test compound were considered a negative control, while ribavirin served as a positive control. Viral RNA was extracted and analyzed by real time RT-PCR.
Controls were Ribavirin and the polyoxymetalate HPA-023 in these experiments.

[1] = Cytotoxicity in MDBK cells; format: cell-based
From the text: (§1) Cytotoxicity testing can be carried out according to standard methods. MDBK, PBM, HepG2, Huh7 and Vero cells were used. […]. […] Afterwards the plates containing the dye are read at 490 nm. Each assay was done in triplicate. Such methodologies are well described and available from the manufacturer (Promega).

human IMPDH = experiment: IMPDH inhibition (Ki); format: biochemical
in vitro = format: cell-based
From the text: as §1

IMPDH = conditions: literature (WO 95/22538); cited from earlier work
[2] = Cytotoxicity in CEM cells; conditions: human, CEM cells
[3] = Cytotoxicity in HepG2 cells; format: cell-based; conditions: human
Description: Cytotoxicity testing can be carried out according to standard methods. MDBK, PBM, HepG2, Huh7 and Vero cells were used. […]. After a three day-incubation, cell viability and mitochondrial activity are measured by adding the MTS-dye (Promega), followed by a 3 hours incubation. Afterwards the plates containing the dye are read at 490 nm. Each assay was done in triplicate. Such methodologies are well described and available from the manufacturer (Promega).

[4] = renal transplanted patients, oral; cited from earlier work
MDBK cells = experiment: Cytotoxicity in MDBK cells; format: cell-based
From the text: as §1

PBMC = experiment: in vitro; format: cell-based; conditions: 7 days
From the text: as §1

CEM = experiment: Cytotoxicity in CEM cells; conditions: read-out: CEM 7 days CC50; 7 days
[5] = Toxicity of C2-MAD in Balb/c mice (body weight); format: in vivo; conditions: Balb/c mice, 10, 30 and 60 mg/kg/day, ten day treatment, versus water
From the text: The results of this screening are illustrated in FIG. 4.

[6] = Bovine viral diarrhea virus isolates and strains, MDBK, 24 h, read-out: Antiviral (24 hrs) EC90
[7] = BVDV real time RT-PCR, after 22 hours, tested at 40 μM
[8] = Bovine viral diarrhea virus isolates and strains, MDBK, 22 h
[9] = BVDV, 24 hrs, read-out: Antiviral (24 hrs) EC90
[10] = 24 hrs, read-out: MDBK (24 hrs) CC50
[11] = Table 2, 3 days, read-out: MDBK (3 Days) CC50
[12] = 7 days, read-out: PBMC 7 days CC50

## NC(=O)c1ncn([C@@H]2O[C@H](CO)[C@@H](O)[C@H]2O)c1O [Mizoribine]
BVDV; Bovine viral diarrhea virus isolates and strains, MDBK
  EC90: > 100 µM
BVDV; [6]
  EC90: > 100 µM
BVDV
  Selectivity Index (24 hrs/24 hrs) CC50/EC90: 1
  virus production / viral RNA versus negative control: non-active
[1]
  CC50 at 24 h: > 100 µM
[1]; Table 2
  CC50 at 3 days: > 100 µM
Human IMPDH; human IMPDH, read-out: Ki
  pKi: 8.40

## COc1c(C)c2c(c(O)c1C/C=C(\C)CCC(=O)O)C(=O)OC2 [Mycophenolic Acid (MPA), Mycophenolic Acid]
BVDV; [7]
  max log reduction Viral Load: >2 (40 μM) log
BVDV; [8]
  EC90: 1 µM
BVDV; [6]
  EC90: < 1 µM
BVDV
  virus production / viral RNA versus negative control: almost complete absence of viral RNA
[1]; bovine, MDBK cells
  CC50 at 24 h: > 100 µM
[1]; bovine, MDBK cells, Table 1
  CC50 at 3 days: 2 µM
[1]; bovine, MDBK cells, Table 2
  CC50 at 3 days: 2 µM
In vitro
  CC50 at 7 days: 75.4 µM
IMPDH
  pIC50: […]
[2]
  CC50 at 7 days: 0.05 µM

## NC(=O)c1cncc([C@H]2O[C@H](CO)[C@@H](O)[C@H]2O)c1
other
  melting point: 210 to 212 °C

## NC(=O)c1cccc(C2OC(CO)C(O)C2O)c1 (stereo not drawn) [Benzamide Riboside]
BVDV; [7]
  max log reduction Viral Load: >2 (40 μM) log
BVDV; [8]
  EC90: 3 µM
BVDV; [6]
  EC90: 3 µM
BVDV
  Selectivity Index (24 hrs/24 hrs) CC50/EC90: 4
[1]; bovine, MDBK cells
  CC50 at 24 h: 13 µM
[1]; bovine, MDBK cells, Table 1
  CC50 at 3 days: 4 µM
[1]; bovine, MDBK cells, Table 2
  CC50 at 3 days: 3 µM
In vitro
  CC50: < 17 µM
[3]; HepG2 cells
  CC50 at 3 days: 8 µM
Human IMPDH; Table 2, read-out: IMPDH Ki
  pKi: 6.18

## Nc1nc2c(ncn2[C@@H]2O[C@H](CO)[C@@H](O)[C@H]2O)c(=O)[nH]1 [guanosine]
BVDV
  virus production / viral RNA versus negative control: non-active

## N#Cc1cncc([C@@H]2O[C@H](CO)[C@@H](O)[C@H]2O)c1
other
  melting point: 169 to 171 °C

## COc1c(C)c2c(c(O)c1C/C=C(\C)CCC(=O)OCCN1CCOCC1)C(=O)OC2 [MMF, mycophenolate mofetil]
[4]
  MPA Tmax: 48 min

## COc1c(C)c2c(c(O)c1CC=O)C(=O)OC2 [C2-MPAld]
BVDV; [9]
  EC90: > 100 µM
BVDV
  virus production / viral RNA versus negative control: non-active
MDBK cells
  CC50: > 100 µM

## COc1c(C)c2c(c(O)c1CCO)C(=O)OC2 [C2-MPAlcohol, 6-(2-hydroxyethyl)-7-hydroxy-5-methoxy-4-methylphthalan-1-one]
BVDV; [7]
  max log reduction Viral Load: 1.96 (40 μM) log
BVDV; BVDV real time RT-PCR, after 22 hours, 1-log reduction in viral production, read-out: EC90
  EC90: 40 µM
BVDV; [9]
  EC90: 40 µM
MDBK cells; [10]
  CC50: > 100 µM
MDBK cells; Table 1, 3 days, read-out: MDBK 3 days CC50
  CC50: 7 µM
MDBK cells; [11]
  CC50: 7 µM
PBMC
  CC50: > 100 µM
CEM
  CC50: 91 µM

## NC(=O)c1csc(C2OC(COP(=O)(O)CP(=O)(O)OCC3OC(n4cnc5c(N)ncnc54)C(O)C3O)C(O)C2O)n1 (stereo not drawn) [β-CH2-TAD]
BVDV; [7]
  max log reduction Viral Load: 0.94 (40 μM) log
BVDV; [6]
  EC90: > 100 µM
BVDV
  Selectivity Index (24 hrs/24 hrs) CC50/EC90: 1
[1]; bovine, MDBK cells
  CC50 at 24 h: > 100 µM
[1]; bovine, MDBK cells, Table 1
  CC50 at 3 days: 70 µM
[1]; bovine, MDBK cells, Table 2
  CC50 at 3 days: 70 µM
In vitro
  CC50 at 7 days: > 100 µM
Human IMPDH; Table 2, read-out: IMPDH Ki
  pKi: 6.96
[2]
  CC50 at 7 days: 47.8 µM

## NC(=O)c1ncn([C@H]2O[C@@H](CO)[C@H](O)[C@@H]2O)n1 [L-Ribavirin]
BVDV; [9]
  EC90: > 100 µM
MDBK cells; [10]
  CC50: > 100 µM
MDBK cells; [11]
  CC50: > 100 µM

## COc1c(C)c2c(c(O)c1C/C=C(\C)C=O)C(=O)OC2 [C4-MPAld]
BVDV; [9]
  EC90: > 100 µM
BVDV
  virus production / viral RNA versus negative control: non-active
MDBK cells
  CC50: > 100 µM

## COc1c(C)c2c(c(O)c1CCOP(=O)(O)CP(=O)(O)OC[C@H]1O[C@@H](n3cnc4c(N)ncnc43)C(O)[C@H]1O)C(=O)OC2 (stereo partly drawn) [C2-MAD]
BVDV; [7]
  max log reduction Viral Load: 1.9 (40 μM) log
[1]
  CC50 at 24 h: > 100 µM
[1]; Table 1
  CC50 at 3 days: 50 µM
[1]; Table 2
  CC50 at 3 days: 9 µM
In vitro; [12]
  CC50 at 7 days: 45.9 µM
[5]
  toxic effects: weight gain or loss (FIG. 4): does not contribute to significant weight gain or loss
[2]
  CC50 at 7 days: 17.7 µM

## NC(=O)c1csc([C@@H]2O[C@H](CO)[C@@H](O)[C@H]2O)n1 [Tiazofurin]
BVDV; [7]
  max log reduction Viral Load: >2 (40 μM) log
BVDV; [8]
  EC90: 30 µM
BVDV; [6]
  EC90: 7 µM
BVDV
  Selectivity Index (24 hrs/24 hrs) CC50/EC90: 14
  virus production / viral RNA versus negative control: almost complete absence of viral RNA
[1]
  CC50 at 24 h: > 100 µM
[1]; Table 1
  CC50 at 3 days: 25 µM
[1]; Table 2
  CC50 at 3 days: 25 µM
In vitro; [12]
  CC50 at 7 days: 79.5 µM
[3]
  CC50 at 3 days: > 100 µM
Human IMPDH; Table 2, read-out: IMPDH Ki
  pKi: 6.96
[2]
  CC50 at 7 days: 73.4 µM

## COc1c(C)c2c(c(O)c1C/C=C(\C)CCCOP(=O)(O)CP(=O)(O)OC[C@H]1O[C@@H](n3cnc4c(N)ncnc43)[C@H](O)[C@@H]1O)C(=O)OC2 [C6-MAD]
BVDV; [9]
  EC90: > 100 µM
BVDV
  virus production / viral RNA versus negative control: non-active
MDBK cells
  CC50: > 100 µM
Human IMPDH; Table 2, read-out: IMPDH Ki
  pKi: 6.52

## NC(=O)c1cccc([C@@H]2O[C@H](COP(=O)(O)CP(=O)(O)OCC3OC(n4cnc5c(N)ncnc54)C(F)C3O)[C@@H](O)[C@H]2O)c1 (stereo partly drawn) [F-ara-CH2-BAD]
BVDV; [9]
  EC90: > 100 µM
BVDV
  virus production / viral RNA versus negative control: non-active
MDBK cells; [10]
  CC50: > 100 µM
MDBK cells; [11]
  CC50: > 100 µM
Human IMPDH; Table 2, read-out: IMPDH Ki
  pKi: 3.76

## COC(=O)CC/C(C)=C/Cc1c(O)c2c(c(C)c1OC)COC2=O [MPA-O-Me]
BVDV; BVDV real time RT-PCR, after 22 hours, tested at 100 μM
  max log reduction Viral Load: 3.32 (100 μM) log
BVDV; [9]
  EC90: < 1 µM
MDBK cells; [10]
  CC50: > 100 µM
MDBK cells; [11]
  CC50: 0.4 µM
Human IMPDH; Table 2, read-out: IMPDH Ki
  pKi: 6.30
